Source: patent US20080166323A1, “Activators of Hexosamine Biosynthesis as Inhibitors of Injury Induced by Ischemia or Hermorrhagic Shock” (UAB RESEARCH FOUNDATION, priority 2004, published 2008)

Experiments:
[1] = test system: rat model of trauma-hemorrhage and resuscitation; test: soft tissue trauma-hemorrhage (T-H) and resuscitation, Example 1 (glucosamine before hemorrhage and during resuscitation); format: in vivo
Method: (§1) The following experiments were conducted using a model of soft tissue trauma-hemorrhage (T-H) as described in Ba, et al., Crit. Care Med (2000) 28(8):2837-2842; Chaudry, et al., Can J Physiol Pharmacol (1975) 53(5):859-865; Ma, et al., Am J Physiol Gastrointest Liver Physiol (2003) 284(1):G107-G115; and Harkema and Chaudry, Crit. Care Med (1992) 20(2):263-275. Male rats were fasted for 16 h and divided into three groups: (1) sham (trauma only); (2) T-H (trauma with subsequent hemorrhage and resuscitation); and (3) G-T-H (trauma with subsequent hemorrhage and resuscitation in the presence of glucosamine). All groups underwent a 5 cm ventral midline laparotomy to induce soft-tissue trauma and were cannulated in both femoral arteries and the right femoral vein. The T-H and G-T-H groups received an infusion of 3 mls over 30 minutes of Ringer's lactate (RL) containing, in the G-T-H group only, 10 mM glucosamine. These two groups were then bled to a mean arterial pressure of 40 mm Hg within 10 minutes and maintained at that pressure for 80 minutes. The T-H group was then infused with 1 ml RL over 10 minutes, while in the G-T-H group the infusate contained an iso-osmotic solution of 75 mM glucosamine (pH 7.4) in 50% RL. The two groups were then resuscitated with four times the maximum hemorrhage volume over a period of 60 minutes with RL (T-H) or RL containing 10 mM glucosamine (G-T-H). Sham-operated animals underwent the same surgical procedure but were neither bled nor resuscitated. Two hours post-resuscitation, a catheter was inserted into the left ventricle via the right carotid artery. Organ blood flows were determined using radioactive microspheres. Cardiac function and blood parameters were also assessed. The data for these experiments are shown in Tables 1 and 2 (values are mean ±standard error of the mean).

UDP-GlcNAc = UDP-GlcNAc pools in isolated hearts; details: 5 mM
Method: In the experiments above with isolated hearts, glucosamine was protective after only a ten minute pre-incubation. While not wishing to be bound by theory, the mechanism believed to be responsible for the protection is an increase in concentration of an intracellular metabolite of the HBP, which results in an increase in protein-associated O-GlcNAc. […] Increases at ten minutes were 47%. With respect to the second point, experiments were performed in which a monoclonal antibody specific for O-GlcNAc on proteins (CTD110) (Corner, et al, Anal Biochem (2001) 293(2):169-177) was used in an immunoblotting protocol. The specificity of this antibody for O-GlcNAc-containing epitopes is verified in each experiment by the inclusion of 10 mM GlcNAc along with the CTD110 antibody on parallel samples. These samples show no staining (data not shown). CTD110 immunoblots were performed on extracts from isolated hearts following a ten-minute perfusion with buffer or buffer containing 5 mM glucosamine (FIG. 8). […] Intriguingly, one group of newly appearing proteins has molecular masses near 70 kDa and another around 90 kDa. […] Another family of heat shock proteins, HSP-90, has a molecular mass near 90 kDa (Nollen and Morimoto, J Cell Sci (2002) 115(Pt 14):2809-2816). Thus, O-GlcNAc bearing proteins appear to be responsible for the protection.

O-GlcNAc on proteins = test: CTD110 immunoblot of O-GlcNAc-containing proteins in isolated heart extracts; details: ten-minute perfusion, 5 mM, isolated hearts
Method: FIG. 8 is a photograph of a CTD110 immunoblot performed on extracts from isolated hearts following a 10-minute perfusion with buffer (control) or buffer containing 5 mM glucosamine (GlcNH2). The differences in the O-GlcNAc-containing protein pattern between the control and the GlcNH2 treated hearts are indicated by arrows.
In the experiments above with isolated hearts, glucosamine was protective after only a ten minute pre-incubation. While not wishing to be bound by theory, the mechanism believed to be responsible for the protection is an increase in concentration of an intracellular metabolite of the HBP, which results in an increase in protein-associated O-GlcNAc. […] Increases at ten minutes were 47%. With respect to the second point, experiments were performed in which a monoclonal antibody specific for O-GlcNAc on proteins (CTD110) (Corner, et al, Anal Biochem (2001) 293(2):169-177) was used in an immunoblotting protocol. The specificity of this antibody for O-GlcNAc-containing epitopes is verified in each experiment by the inclusion of 10 mM GlcNAc along with the CTD110 antibody on parallel samples. These samples show no staining (data not shown). CTD110 immunoblots were performed on extracts from isolated hearts following a ten-minute perfusion with buffer or buffer containing 5 mM glucosamine (FIG. 8). […]

[2] = test system: rat model of trauma-hemorrhage and resuscitation; test: trauma/hemorrhage mimicking the field, Example 2 (glucosamine only during resuscitation); format: in vivo
Method: as §1
A second experiment was performed in order to mimic a trauma/hemorrhage in the field. There were no treatments in any of the three groups prior to trauma/hemorrhage. The T-H and G-T-H groups were partially resuscitated identically with two times the maximum hemorrhage volume over a period of 30 minutes. In the G-T-H group, a 1 ml bolus containing an iso-osmotic solution of 75 mM glucosamine (pH 7.4) in 50% RL was administered, while in the T-H group this bolus contained only RL. This was then followed with two times the maximum hemorrhage volume over a period of 30 minutes with RL (T-H) or RL containing 10 mM glucosamine (G-T-H). Sham-operated animals underwent the same surgical procedure but were neither bled nor resuscitated. The data for this experiment are shown in Tables 3 and 4 (values are mean ±standard error of the mean).

[3] = rat, G-T-H (n = 3), 2 h after T-H, glucosamine before hemorrhage and in resuscitation, mean ± SEM
[4] = rat, G-T-H, 2 h after T-H and resuscitation, Example 1, mean ± SEM
[5] = rat, G-T-H (n = 8), 2 h after T-H and resuscitation, Example 2, mean ± SEM
[6] = rat, G-T-H (n = 8), 2 h after T-H, glucosamine only during resuscitation, mean ± SEM

In the case of N[C@H]1C(O)O[C@H](CO)[C@@H](O)[C@@H]1O (stereo partly drawn) [glucosamine], the “Hepatic blood flow, change” value ([1]; G-T-H group, Example 1) is reported as “improved”, the “Total peripheral resistance, change” value ([1]; G-T-H group, Example 1) is reported as “decreased” and the “+dp/dt relative to the T-H group” value ([1]; G-T-H vs T-H group, Example 1) is reported as “markedly improved”. The “Cardiac output improvement over the T-H group” value ([1]; G-T-H vs T-H group, Example 1) was “more than two-fold”, the “oxygen consumption relative to the T-H group” value ([1]; G-T-H vs T-H group, Example 1) was “more than doubled” and the “oxygen delivery relative to the T-H group” value ([1]; G-T-H vs T-H group, Example 1) was “more than doubled”. The “−dp/dt relative to the T-H group” value ([1]; G-T-H vs T-H group, Example 1) was “markedly improved”, the “Cardiac output improvement over the sham group” value ([1]; G-T-H vs sham group, Example 1) was “more than 50%” and the “+dp/dt” value [1, 3] was 14,400 ± 900 mm Hg/sec. For the same molecule, the “Cardiac Output” value [1, 3] was 40.5 ± 0.4 ml/min 100 g body wt, the “Heart Rate” value [1, 3] was 371 ± 15 beat/minute and the “Mean Arterial Pressure” value [1, 3] was 104 ± 3 mm Hg. For the same molecule, the “Oxygen Consumption” value [1, 3] was 1.32 ± 0.15 ml/min 100 g body wt, the “Oxygen Delivery” value [1, 3] was 3.3 ± 0.1 ml/min 100 g body wt and the “Oxygen Extraction” value [1, 3] was 42.0 ± 5.4%. The Stroke volume [1, 3] was 109.7 ± 5.7 μl/beat/100 g body wt, the “Total Peripheral Resistance” value [1, 3] was 2.58 ± 0.10 mm Hg/ml/min/100 g body wt and the “−dp/dt” value [1, 3] was 8,700 ± 600 mm Hg/sec. For the same molecule, the “Regional Blood Flow: Brain” value [1, 4] was 103 ± 11 ml/min/100 g tissue, the “Regional Blood Flow: Cardiac” value [1, 4] was 1,320 ± 170 ml/min/100 g tissue and the “Regional Blood Flow: Cecum” value [1, 4] was 118 ± 29 ml/min/100 g tissue. For the same molecule, the “Regional Blood Flow: Gastric” value [1, 4] was 78.3 ± 5.1 ml/min/100 g tissue, the “Regional Blood Flow: Hepatic Artery” value [1, 4] was 18.5 ± 6.0 ml/min/100 g tissue and the “Regional Blood Flow: Large Intestine” value [1, 4] was 101 ± 18 ml/min/100 g tissue. For the same molecule, the “Regional Blood Flow: Lung” value [1, 4] was 74.2 ± 18.1 ml/min/100 g tissue, the “Regional Blood Flow: Mesenteric” value [1, 4] was 29.2 ± 5.0 ml/min/100 g tissue and the “Regional Blood Flow: Muscle” value [1, 4] was 6.45 ± 1.69 ml/min/100 g tissue. For the same molecule, the “Regional Blood Flow: Pancreatic” value [1, 4] was 56 ± 4 ml/min/100 g tissue, the “Regional Blood Flow: Portal Vein” value [1, 4] was 187 ± 14 ml/min/100 g tissue and the “Regional Blood Flow: Renal” value [1, 4] was 374 ± 13 ml/min/100 g tissue. The “Regional Blood Flow: Skin” value [1, 4] was 53.9 ± 5.7 ml/min/100 g tissue, the “Regional Blood Flow: Small Intestine” value [1, 4] was 240 ± 24 ml/min/100 g tissue and the “Regional Blood Flow: Splenic” value [1, 4] was 46 ± 20 ml/min/100 g tissue. For the same molecule, the “Regional Blood Flow: Thymus” value [1, 4] was 47.8 ± 10.5 ml/min/100 g tissue, the “Regional Blood Flow: Total Hepatic” value [1, 4] was 202 ± 20 ml/min/100 g tissue and the “increase in UDP-GlcNAc pools” value (UDP-GlcNAc; 30 minute incubation) was “about 75%”. For the same molecule, the “increase in UDP-GlcNAc pools” value (UDP-GlcNAc; ten minutes) was 47%, the “O-GlcNAc-containing protein pattern vs buffer” value (O-GlcNAc on proteins) was “Clear differences” and the protection in trauma/hemorrhage ([2]; glucosamine only during resuscitation, Example 2) was “remarkably protective”. For the same molecule, the “Regional Blood Flow: Brain” value [2, 5] was 151.58 ± 13.97 ml/min/100 g tissue, the “Regional Blood Flow: Cardiac” value [2, 5] was 933.65 ± 114.73 ml/min/100 g tissue and the “Regional Blood Flow: Cecum” value [2, 5] was 86.39 ± 10.70 ml/min/100 g tissue. For the same molecule, the “Regional Blood Flow: Gastric” value [2, 5] was 71.08 ± 6.84 ml/min/100 g tissue, the “Regional Blood Flow: Hepatic Artery” value [2, 5] was 45.10 ± 6.58 ml/min/100 g tissue and the “Regional Blood Flow: Large Intestine” value [2, 5] was 96.83 ± 6.90 ml/min/100 g tissue. For the same molecule, the “Regional Blood Flow: Lung” value [2, 5] was 29.71 ± 4.87 ml/min/100 g tissue, the “Regional Blood Flow: Mesenteric” value [2, 5] was 43.12 ± 9.56 ml/min/100 g tissue and the “Regional Blood Flow: Muscle” value [2, 5] was 32.97 ± 5.00 ml/min/100 g tissue. For the same molecule, the “Regional Blood Flow: Pancreatic” value [2, 5] was 52.08 ± 5.53 ml/min/100 g tissue, the “Regional Blood Flow: Portal Vein” value [2, 5] was 211.57 ± 23.79 ml/min/100 g tissue and the “Regional Blood Flow: Renal” value [2, 5] was 472.07 ± 49.40 ml/min/100 g tissue. For the same molecule, the “Regional Blood Flow: Skin” value [2, 5] was 11.65 ± 1.25 ml/min/100 g tissue, the “Regional Blood Flow: Small Intestine” value [2, 5] was 233.60 ± 27.07 ml/min/100 g tissue and the “Regional Blood Flow: Splenic” value [2, 5] was 54.77 ± 4.44 ml/min/100 g tissue. For the same molecule, the “Regional Blood Flow: Thymus” value [2, 5] was 40.70 ± 4.96 ml/min/100 g tissue, the “Regional Blood Flow: Total Hepatic” value [2, 5] was 256.67 ± 27.12 ml/min/100 g tissue and the “+dp/dt” value [2, 6] was 13656 ± 7786 mm Hg/sec. For the same molecule, the “Cardiac Output” value [2, 6] was 33.49 ± 2.12 ml/min 100 g body wt, the “Heart Rate” value [2, 6] was 394.50 ± 13.13 beat/minute and the “Mean Arterial Pressure” value [2, 6] was 97.88 ± 4.19 mm Hg. For the same molecule, the “Oxygen Consumption” value [2, 6] was 0.93 ± 0.23 ml/min 100 g body wt, the “Oxygen Delivery” value [2, 6] was 2.52 ± 0.17 ml/min 100 g body wt and the “Oxygen Extraction” value [2, 6] was 34.48 ± 7.45%. The “Stroke volume” value [2, 6] was 84.95 ± 4.66 μl/beat/100 g body wt, the “Total Peripheral Resistance” value [2, 6] was 3.05 ± 0.31 mm Hg/ml/min/100 g body wt and the “−dp/dt” value [2, 6] was 8549 ± 549 mm Hg/sec.
